From US4305954A, “Antiinflammatory 3,4-dihydro(or 1,4-dihydro)-2-[(substituted)thio]-[1]benzopyrano[3,4-d]imidazoles and their corresponding sulfoxides and sulfones” (E. I. Du Pont de Nemours and Company, priority 1981, dated 1981)
Like-named read-outs stand apart in the source and are kept apart here.

Test system: adjuvant-induced arthritis in rats
Experiment: Established adjuvant-induced arthritis in rats
Format: in vivo, rat (Charles River Lewis male rats)
Settings: for ED50: Rattus norvegicus, 24 h, read-out: Adjuvant Arthritis ED50; for % reduction at the indicated dose (paw volume, Adjuvant Arthritis): 9 mg/kg
[1] = oral by gavage, 7 daily doses, ED50% decrease from control paw volume (uninjected left hind paw), read one day after last dose

| Compound | ED50 [1] [mg/kg] | % reduction at the indicated dose (paw volume, Adjuvant Arthritis) (oral by gavage, 7 daily doses) [%] | ED50 (po) [mg/kg] |
| --- | --- | --- | --- |
| FC(F)C(F)(F)Sc1nc2c([nH]1)COc1ccc(Cl)cc1-2 [Example 4] | > 9 | 30 |  |
| Fc1ccc2c(c1)OCc1[nH]c(SC(F)(F)C(F)F)nc1-2 [Example 5] | 50 |  |  |
| COc1ccc2c(c1)c(CC(=O)O)c(C)n2C(=O)c1ccc(Cl)cc1 [Indomethacin, indomethacin, reference compound] |  |  | 0.3 |
| FC(F)C(F)(F)Sc1nc2c([nH]1)COc1cc(Cl)c(Cl)cc1-2 [Example 1, 7,8-Dichloro-3,4-dihydro(or 1,4-dihydro)-2-[(1,1,2,2-tetrafluoroethyl)-thio]-[1]benzopyrano[3,4-d]imidazole] | 8.2 |  |  |
| CCCCC1C(=O)N(c2ccccc2)N(c2ccccc2)C1=O [Phenylbutazone, phenylbutazone, reference compound] | 10 |  |  |
| CC(C)Cc1ccc(C(C)C(=O)O)cc1 (centres unmarked) [Ibuprofen, ibuprofen, reference compound] | 100 |  |  |
| CC(=O)Oc1ccccc1C(=O)O [Aspirin, aspirin, reference compound] |  |  | 305 |
| O=S(=O)(c1nc2c([nH]1)COc1cc(Cl)c(Cl)cc1-2)C(F)(F)C(F)F [Example 2, 7,8-Dichloro-3,4-dihydro(or 1,4-dihydro)-2-[(1,1,2,2-tetrafluoroethyl)sulfonyl]-[1]benzopyrano[3,4-d]imidazole] | 3.1 |  |  |
| O=S(=O)(c1nc2c([nH]1)COc1cc(F)ccc1-2)C(F)(F)C(F)F [Example 6] | > 9 | 22 |  |
